Legend:
[1] = target: T1, RORγ-LBD (Homo sapiens, UniProt P51449); assay: RORγ-Ligand Binding Domain (LBD) TR-FRET Assay; format: biochemical;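 as to TR-FRET Assay Max Response: 665/615 nm ratio relative to signal without ursolic acid or compound set at 100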
T1 construct: made in house; host or cells: SF9 cells (baculovirus)
T1 sequence (P51449 269-508 limits assumed): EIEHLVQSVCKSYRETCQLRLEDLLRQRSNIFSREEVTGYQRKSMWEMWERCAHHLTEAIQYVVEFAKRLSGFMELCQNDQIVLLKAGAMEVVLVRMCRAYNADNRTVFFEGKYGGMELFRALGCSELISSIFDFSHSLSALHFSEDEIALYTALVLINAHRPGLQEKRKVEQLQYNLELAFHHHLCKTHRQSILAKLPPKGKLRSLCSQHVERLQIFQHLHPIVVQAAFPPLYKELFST
Summary of the method: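 Lysate from SF9 cells expressing His-RORγ-LBD is diluted to about 3 nM final in 50 mM Tris pH 7.0 assay buffer. A biotin-tagged SRC1 LXXLL peptide goes in at 200 nM final, plus ursolic acid at 2 μM final. Test compounds carry 1% DMSO final; signal read by TR-FRET.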

[2] = target: T2, Gal4-RORγ-LBD (Homo sapiens, UniProt P51449); assay: Gal4-RORγ Luciferase Reporter Assay in HEK-293T Cells; format: cell-based; conditions: HEK-293 cells, luciferase reporter, with 2 μM ursolic acid
T2 construct: expressed in transfected cells; host or cells: HEK-293 cells (pcDNA3.1neo plasmid)
T2 sequence (P51449 269-508 limits assumed): T1 sequence (P51449 269-508 limits assumed)
Summary of the method: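 In transfected HEK-293 cells (Gal4-RORγ-LBD, Gal4-luciferase), test agents with 2 μM ursolic acid were incubated overnight at 37 °C before luminescent detection. Values are relative to the ursolic-acid-free, compound-free signal (100).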

Row | Structure (SMILES) | EC50 [1] [nM] | TR-FRET Assay Max Response [1] | EC50 [2] [nM] | Gal4-RORγ Assay Max Response [2]
1 | Cn1ccc(-c2ccc3c(c2)N(S(=O)(=O)c2cccc(C(F)(F)F)c2)C[C@H](CCC(=O)O)O3)n1 [Compound 4W, (S)-3-(6-(1-methyl-1H-pyrazol-3-yl)-4-((3-(trifluoromethyl)-phenyl)sulfonyl)-3,4-dihydro-2H-benzo[b][1,4]oxazin-2-yl)propanoic acid] | 500 to 5000 | **** (The symbol “****” indicates a value greater than 200) | 500 to 5000 | ** (The symbol “**” indicates a value in the range of greater than 90 to 150)
2 | CN(C)c1cccc(-c2ccc3c(c2)N(S(=O)(=O)c2cccc(C(F)(F)F)c2)C[C@H](CCC(=O)O)O3)n1 [Compound 4X, (S)-3-(6-(6-(dimethylamino)-pyridin-2-yl)-4-((3-(trifluoro-methyl)phenyl)sulfonyl)-3,4-dihydro-2H-benzo[b][1,4]-oxazin-2-yl)propanoic acid] | < 500 | **** (The symbol “****” indicates a value greater than 200) | < 500 | ** (The symbol “**” indicates a value in the range of greater than 90 to 150)
3 | COc1cncc(-c2ccc3c(c2)N(S(=O)(=O)c2cccc(C(F)(F)F)c2)C[C@H](CCC(=O)O)O3)n1 [Compound 4Y, (S)-3-(6-(6-methoxypyrazin-2-yl)-4-((3-(trifluoromethyl)-phenyl)sulfonyl)-3,4-dihydro-2H-benzo[b][1,4]oxazin-2-yl)propanoic acid] | < 500 | **** (The symbol “****” indicates a value greater than 200) | 500 to 5000 | * (The symbol “*” indicates a value in the range of 25 to 90)
4 | Cc1nnc(-c2ccc3c(c2)N(S(=O)(=O)c2cccc(C(F)(F)F)c2)C[C@H](CCC(=O)O)O3)o1 [Compound 4Z, (S)-3-(6-(5-methyl-1,3,4-oxadiazol-2-yl)-4-((3-(trifluoro-methyl)phenyl)sulfonyl)-3,4-dihydro-2H-benzo[b][1,4]-oxazin-2-yl)propanoic acid] | 500 to 5000 | * (The symbol “*” indicates a value in the range of 25 to 90) | > 10000 | 
5 | COc1cc(S(=O)(=O)N2C[C@H](CCC(=O)O)Oc3ccc(-c4cccc(Cl)c4)cc32)ccc1F [Compound 5, (S)-3-(6-(3-chlorophenyl)-4-((4-fluoro-3-methoxyphenyl)sulfonyl)-3,4-dihydro-2H-benzo[b][1,4]oxazin-2-yl)propanoic acid] | < 500 | *** (The symbol “***” indicates a value in the range of greater than 150 to 200) | 500 to 5000 | ** (The symbol “**” indicates a value in the range of greater than 90 to 150)
6 | CCOc1nn(CC)cc1S(=O)(=O)N1C[C@H](CCC(=O)O)Oc2ccc(-c3cccc(Cl)c3)cc21 [Compound 6A, (S)-3-(6-(3-chlorophenyl)-4-((3-ethoxy-1-ethyl-1H-pyrazol-4-yl)sulfonyl)-3,4-dihydro-2H-benzo[b][1,4]oxazin-2-yl)propanoic acid] | < 500 | *** (The symbol “***” indicates a value in the range of greater than 150 to 200) | 500 to 5000 | * (The symbol “*” indicates a value in the range of 25 to 90)
7 | O=C(O)CC[C@H]1CN(S(=O)(=O)c2cccc(Cl)c2)c2cc(-c3cccc(Cl)c3)ccc2O1 [Compound 6B, (S)-3-(6-(3-chlorophenyl)-4-((3-chlorophenyl)sulfonyl)-3,4-dihydro-2H-benzo[b][1,4]oxazin-2-yl)propanoic acid] | < 500 | **** (The symbol “****” indicates a value greater than 200) | 500 to 5000 | ** (The symbol “**” indicates a value in the range of greater than 90 to 150)
8 | CCn1cc(S(=O)(=O)N2C[C@H](CCC(=O)O)Oc3ccc(-c4cccc(Cl)c4)cc32)c(Cl)n1 [Compound 6C, (S)-3-(4-((3-chloro-1-ethyl-1H-pyrazol-4-yl)sulfonyl)-6-(3-chlorophenyl)-3,4-dihydro-2H-benzo[b][1,4]oxazin-2-yl)propanoic acid] | < 500 | **** (The symbol “****” indicates a value greater than 200) | 500 to 5000 | ** (The symbol “**” indicates a value in the range of greater than 90 to 150)
